Values of other authors as cited in patent EP1941860A1, “Topical formulations” (ACO Hud Nordic AB, priority 2006, dated 2008).

Conditions: in prior art formulations

CC(O)C(=O)O (stereo not shown) [lactic acid]
concentration producing a stinging action: about 0.5 % by weight of the formulation
